# Reference: patent US20090099195A1 (ASTRAZENECA AB, priority 2007, published 2009)
# Target: T1, hP2X3 (human Purinergic P2X receptors subtype 3), clone A (Homo sapiens, UniProt P56373)
# T1 sequence (P56373 1-397): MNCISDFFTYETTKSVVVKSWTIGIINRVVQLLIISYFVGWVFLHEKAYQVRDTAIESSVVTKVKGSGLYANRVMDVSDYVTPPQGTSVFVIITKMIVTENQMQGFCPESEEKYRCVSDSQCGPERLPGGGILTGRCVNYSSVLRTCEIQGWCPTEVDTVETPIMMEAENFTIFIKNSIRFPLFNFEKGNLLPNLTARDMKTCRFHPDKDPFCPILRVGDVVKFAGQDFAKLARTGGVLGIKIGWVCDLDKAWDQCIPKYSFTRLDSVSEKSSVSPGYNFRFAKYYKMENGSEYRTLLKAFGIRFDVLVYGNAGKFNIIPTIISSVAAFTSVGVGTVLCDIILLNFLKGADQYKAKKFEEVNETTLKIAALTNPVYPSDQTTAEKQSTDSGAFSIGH
# Assay: hP2X3 FLIPR calcium (Fluo-4) antagonist assay, clone A
# Conditions: Human P2X3 FLIPR Clone A Mean IC50 (nM), RLE cells expressing hP2X3 clone A (AB016608); agonist 500 nM α,β-methylene-ATP
# Protocol: The assay used a calcium indicator dye (Fluo-4) that emits fluorescence, the intensity of which is related to the concentration of calcium that entered the cell when P2X3 was activated and the channel opened. Activation of hP2X3 or rat P2X3 and rat P2X2/3 (from the coexpression of rat P2X3 and rat P2×2) is elicited the by P2X3 agonist α,β methylene-ATP (Sigma M6517), and the resulting fluorescence is measured with a FLIPR II™ instrument (Molecular Devices). Compounds are tested for their ability to inhibit the agonist-induced fluorescent signal.
# For the rat P2X2/3 HEK-TREX cells, induction of the rat P2X3 expression is used to generate the rat P2X2/3 channels in HEK-TREX cells and performed by addition of 1 μg/mL tetracycline (Invitrogen) 24 h prior to compounds testing to the HEK-TREX expressing the rat P2X2 constitutively. On the day of the experiment, the cells and test compounds are prepared as follows. […] After preparing the compounds, the medium is removed from the cell plates by inversion. A loading solution of 30 μL assay buffer containing 4 μM of the calcium indicator dye FLUO-4 AM (Molecular Probes F14202) is added to each well using a Multidrop (Labsystems). […] The incubation is terminated by washing the cells four times in assay buffer using a Skatron Embla (Molecular Devices), and 25 μL of assay buffer was left in each well. Cell plates are then transferred to the FLIPR. Experiments are initiated by measuring a baseline fluorescence reading for 10 seconds, followed by the addition of 12.5 μL of cpds and data sampling for a total 280 seconds. The experiments are terminated by addition of 12.5 μL of a reference agonist (500 nM α,β-methylene-ATP) or buffer, producing a final assay volume of 50 μL followed by data sampling for an additional 280 seconds.
# In P2X3 antagonist experiments (human and rat assays) data are analysed as normalised maximal peak fluorescence monitored following agonist addition and calculated as percent of relative fluorescent counts from control agonist. The dose-response antagonist inhibition curves are analyzed in a 4-parameter sigmoidal fit using a non-linear curve-fitting program (XLfit version 5.0.6, ID Business Solutions Limited, Guildford, UK).
row,SMILES,IC50 [nM]
1,"CC(=O)N1CCN(c2nc3c(c(N(C)Cc4cc5cc(Cl)ccc5cn4)n2)CN(C(C)C)C3=O)CC1 [Example 348, 2-(4-acetylpiperazin-1-yl)-4-(((6-chloroisoquinolin-3-yl)methyl)(methyl)amino)-6-isopropyl-5H-pyrrolo[3,4-d]pyrimidin-7(6H)-one]",2720
2,"CC(=O)N1CCN(c2nc3c(c(N(C)Cc4cc5cc(F)ccc5cn4)n2)CN(C(C)C)C3=O)CC1 [Example 349, 2-(4-acetylpiperazin-1-yl)-4-(((6-fluoroisoquinolin-3-yl)methyl)(methyl)amino)-6-isopropyl-5H-pyrrolo[3,4-d]pyrimidin-7(6H)-one]",1050
3,"CC(=O)N1CCN(c2nc3c(c(N(C)Cc4cc5ccc(F)cc5cn4)n2)CN(C(C)C)C3=O)CC1 [Example 350, 2-(4-acetylpiperazin-1-yl)-4-(((7-fluoroisoquinolin-3-yl)methyl)(methyl)amino)-6-isopropyl-5H-pyrrolo[3,4-d]pyrimidin-7(6H)-one]",29.9
4,"CC(=O)N1CCN(c2nc3c(c(N(C)Cc4cc5ccc(C)cc5cn4)n2)CN(C(C)C)C3=O)CC1 [Example 353, 2-(4-acetylpiperazin-1-yl)-6-isopropyl-4-(methyl((7-methylisoquinolin-3-yl)methyl)amino)-5H-pyrrolo[3,4-d]pyrimidin-7(6H)-one]",61.1
5,"CC(=O)N1CCN(c2nc(NCc3ccc4c(ccn4C)c3)c3c(n2)C(=O)N(C(C)C)C3)CC1 [Example 354, 2-(4-acetylpiperazin-1-yl)-6-(1-methylethyl)-4-{[(1-methyl-1H-indol-5-yl)methyl]amino}-5,6-dihydro-7H-pyrrolo[3,4-d]pyrimidin-7-one]",494
6,"CC(=O)N1CCN(c2nc3c(c(N(C)Cc4ccc5ccn(C)c5c4)n2)CN(C(C)C)C3=O)CC1 [Example 355, 2-(4-acetylpiperazin-1-yl)-6-(1-methylethyl)-4-{methyl[(1-methyl-1H-indol-6-yl)methyl]amino}-5,6-dihydro-7H-pyrrolo[3,4-d]pyrimidin-7-one]",5760
7,"CC(=O)N1CCN(c2nc(NCc3ccc4ccn(C)c4c3)c3c(n2)C(=O)N(C(C)C)C3)CC1 [Example 356, 2-(4-acetylpiperazin-1-yl)-6-(1-methylethyl)-4-{[(1-methyl-1H-indol-6-yl)methyl]amino}-5,6-dihydro-7H-pyrrolo[3,4-d]pyrimidin-7-one]",1060

# Results, then the compound that gave them:
row,IC50 [nM],SMILES
1,163,"CCOc1ccc([C@@H](C)Nc2nc(N3CCN(C(C)=O)CC3)nc3c2CN(C(C)C)C3=O)c(OCC)c1 [Example 357, (R)-2-(4-acetylpiperazin-1-yl)-4-(1-(2,4-diethoxyphenyl)ethylamino)-6-isopropyl-5H-pyrrolo[3,4-d]pyrimidin-7(6H)-one]"
2,> 30000,"CC(=O)N1CCN(c2nc(N[C@H](C)c3ccc(CN(C)C)cc3)c3c(n2)C(=O)N(C(C)C)C3)CC1 [Example 358, (R)-2-(4-acetylpiperazin-1-yl)-4-(1-(4-((dimethylamino)methyl)phenyl)ethylamino)-6-isopropyl-5H-pyrrolo[3,4-d]pyrimidin-7(6H)-one]"
3,511,"CC(=O)N1CCN(c2nc(N[C@H](C)c3ccc4c(c3)OC(F)(F)O4)c3c(n2)C(=O)N(C(C)C)C3)CC1 [Example 359, (R)-2-(4-acetylpiperazin-1-yl)-4-(1-(2,2-difluorobenzo[d][1,3]dioxol-5-yl)ethylamino)-6-isopropyl-5H-pyrrolo[3,4-d]pyrimidin-7(6H)-one]"
4,> 30000,"CC(=O)N1CCN(c2nc3c(c(N(C)Cc4ccc5c(c4)OC(F)(F)O5)n2)CN(C(C)C)C3=O)CC1 [Example 360, 2-(4-acetylpiperazin-1-yl)-4-(((2,2-difluorobenzo[d][1,3]dioxol-5-yl)methyl)(methyl)amino)-6-isopropyl-5H-pyrrolo[3,4-d]pyrimidin-7(6H)-one]"
5,327,"CCOc1ccc([C@@H](C)Nc2nc(N3CCN(CC)C(=O)C3)nc3c2CN(C(C)C)C3=O)cc1 [Example 361, (R)-4-(1-(4-ethoxyphenyl)ethylamino)-2-(4-ethyl-3-oxopiperazin-1-yl)-6-isopropyl-5H-pyrrolo[3,4-d]pyrimidin-7(6H)-one]"
